# Tests used:
# pigweed = experiment: Test B pre/postemergence pigweed; format: in vivo, Amaranthus retroflexus
# Procedure, shortened: (§1)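 Response is a visual 0-to-10 score relative to untreated plants, where 0 means no effect and 10 means complete control, taken twelve to sixteen days after application. Treatments went onto soil at planting and onto foliage of 1- to 4-leaf plants, using a surfactant-containing non-phytotoxic solvent.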
# soybean = experiment: Test B pre/postemergence soybean; format: in vivo, Glycine max
# Procedure, shortened: as §1
# morningglory = experiment: Test B pre/postemergence morningglory; format: in vivo, Ipomoea hederacea
# Procedure, shortened: as §1
# wild oat = experiment: Test B pre/postemergence wild oat; format: in vivo, Avena fatua
# Procedure, shortened: as §1
# crabgrass = experiment: Test B pre/postemergence crabgrass; format: in vivo, Digitaria sanguinalis
# Procedure, shortened: as §1
# wheat = experiment: Test B pre/postemergence wheat; format: in vivo, Triticum aestivum
# Procedure, shortened: as §1
# rice = experiment: Test B flood test rice; format: in vivo, Oryza sativa
# Procedure, shortened: (§2)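 Each value is a visual injury score relative to controls, with 10 meaning complete control and 0 no effect. Evaluation took place twelve to sixteen days after the 2-leaf-stage plants were treated and kept in the greenhouse.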
# rape = experiment: Test B pre/postemergence rape; format: in vivo, Brassica napus
# Procedure, shortened: as §1
# blackgrass = experiment: Test B pre/postemergence blackgrass; format: in vivo, Alopecurus myosuroides
# Procedure, shortened: as §1
# corn = experiment: Test B pre/postemergence corn; format: in vivo, Zea mays
# Procedure, shortened: as §1
# giant foxtail = experiment: Test B pre/postemergence giant foxtail; format: in vivo, Setaria faberii
# Procedure, shortened: as §1
# purple nutsedge = experiment: Test B pre/postemergence purple nutsedge; format: in vivo, Cyperus rotundus
# Procedure, shortened: as §1
# velvetleaf = experiment: Test B pre/postemergence velvetleaf; format: in vivo, Abutilon theophrasti
# Procedure, shortened: as §1
# bedstraw = experiment: Test B pre/postemergence bedstraw; format: in vivo, Galium aparine
# Procedure, shortened: as §1
# duck salad = experiment: Test B flood test duck salad; format: in vivo, Heteranthera limosa
# Procedure, shortened: as §2
# surinam grass = experiment: Test B pre/postemergence surinam grass; format: in vivo, Brachiaria decumbens
# Procedure, shortened: as §1
# [1] = Postemergence, Rate 62 g/ha, scale 0 to 10, 0 is no effect, 10 is complete control
# [2] = Postemergence, Rate 250 g/ha, scale 0 to 10, 0 no effect, 10 complete control
# [3] = Preemergence, Rate 62 g/ha, scale 0 to 10 (0 no effect, 10 complete control)
# [4] = Preemergence, Rate 125 g/ha, scale 0 to 10 (0 no effect, 10 complete control)
# [5] = Preemergence, Rate 250 g/ha, scale of 0 to 10 where 0 is no effect and 10 is complete control
# [6] = Preemergence, Rate 500 g/ha, scale 0 (no effect) to 10 (complete control)
# [7] = Rate 125 g/ha, Postemergence, scale 0 to 10, 0 no effect, 10 complete control
# [8] = Rate 500 g/ha, Postemergence, scale 0 to 10, 0 no effect, 10 complete control
# [9] = Rate 125 g/ha, Postemergence section (flood test species), scale 0 to 10, 0 no effect, 10 complete control
# [10] = Rate 500 g/ha, listed under Postemergence (flood test species), scale 0 to 10, 0 no effect, 10 complete control
# [11] = flood test, listed under Postemergence, Rate 250 g/ha, scale 0 to 10, 0 no effect, 10 complete control
compound,measurement,setting,value
Cc1cc(C)c(-n2c(=O)on(C(=O)N(c3ccc(Cl)cc3)C(C)C)c2=O)c(C)c1 [Compound 61],Redroot pigweed plant response rating,pigweed; [1],1
same,Redroot pigweed plant response rating,pigweed; [2],3
same,Redroot pigweed plant response rating,pigweed; [3],0
same,"Plant response rating, Redroot pigweed",pigweed; [4],0
same,"Plant response rating, Redroot pigweed",pigweed; [5],1
same,Redroot pigweed plant response rating,pigweed; [6],3
same,Redroot pigweed plant response rating,pigweed; [7],2
same,Redroot pigweed plant response rating,pigweed; [8],4
same,Soybean plant response rating,soybean; [1],1
same,Soybean plant response rating,soybean; [2],4
same,Soybean plant response rating,soybean; [3],0
same,"Plant response rating, Soybean",soybean; [4],0
same,"Plant response rating, Soybean",soybean; [5],0
same,Soybean plant response rating,soybean; [6],0
same,Soybean plant response rating,soybean; [7],3
same,Soybean plant response rating,soybean; [8],5
same,Morningglory plant response rating,morningglory; [1],2
same,Morningglory plant response rating,morningglory; [2],4
same,Morningglory plant response rating,morningglory; [3],0
same,"Plant response rating, Morningglory",morningglory; [4],0
same,"Plant response rating, Morningglory",morningglory; [5],0
same,Morningglory plant response rating,morningglory; [6],0
same,Morningglory plant response rating,morningglory; [7],2
same,Morningglory plant response rating,morningglory; [8],8
same,Wild oats plant response rating,wild oat; [1],0
same,Wild oats plant response rating,wild oat; [2],0
same,Wild oats plant response rating,wild oat; [3],0
same,"Plant response rating, Wild oats",wild oat; [4],0
same,"Plant response rating, Wild oats",wild oat; [5],0
same,Wild oats plant response rating,wild oat; [6],3
same,Wild oats plant response rating,wild oat; [7],0
same,Wild oats plant response rating,wild oat; [8],0
same,Crabgrass plant response rating,crabgrass; [1],0
same,Crabgrass plant response rating,crabgrass; [2],0
same,Crabgrass plant response rating,crabgrass; [3],0
same,"Plant response rating, Crabgrass",crabgrass; [4],4
same,"Plant response rating, Crabgrass",crabgrass; [5],7
same,Crabgrass plant response rating,crabgrass; [6],8
same,Crabgrass plant response rating,crabgrass; [7],0
same,Crabgrass plant response rating,crabgrass; [8],0
same,Wheat plant response rating,wheat; [1],0
same,Wheat plant response rating,wheat; [2],0
same,Wheat plant response rating,wheat; [3],0
same,"Plant response rating, Wheat",wheat; [4],0
same,"Plant response rating, Wheat",wheat; [5],0
same,Wheat plant response rating,wheat; [6],0
same,Wheat plant response rating,wheat; [7],0
same,Wheat plant response rating,wheat; [8],0
same,Rice plant response rating,rice; [1],0
same,Rice plant response rating,rice; [9],0
same,Rice plant response rating,rice; [10],0
same,Rice plant response rating,rice; [11],0
same,Rape plant response rating,rape; [1],0
same,Rape plant response rating,rape; [2],0
same,Rape plant response rating,rape; [3],0
same,"Plant response rating, Rape",rape; [4],0
same,"Plant response rating, Rape",rape; [5],0
same,Rape plant response rating,rape; [6],0
same,Rape plant response rating,rape; [7],0
same,Rape plant response rating,rape; [8],3
same,Blackgrass plant response rating,blackgrass; [1],0
same,Blackgrass plant response rating,blackgrass; [2],6
same,Blackgrass plant response rating,blackgrass; [3],0
same,"Plant response rating, Blackgrass",blackgrass; [4],0
same,"Plant response rating, Blackgrass",blackgrass; [5],5
same,Blackgrass plant response rating,blackgrass; [6],6
same,Blackgrass plant response rating,blackgrass; [7],3
same,Blackgrass plant response rating,blackgrass; [8],7
same,Corn plant response rating,corn; [1],0
same,Corn plant response rating,corn; [2],0
same,Corn plant response rating,corn; [3],0
same,"Plant response rating, Corn",corn; [4],0
same,"Plant response rating, Corn",corn; [5],0
same,Corn plant response rating,corn; [6],0
same,Corn plant response rating,corn; [7],0
same,Corn plant response rating,corn; [8],0
same,Giant foxtail plant response rating,giant foxtail; [1],0
same,Giant foxtail plant response rating,giant foxtail; [2],0
same,Giant foxtail plant response rating,giant foxtail; [3],3
same,"Plant response rating, Giant foxtail",giant foxtail; [4],7
same,"Plant response rating, Giant foxtail",giant foxtail; [5],9
same,Giant foxtail plant response rating,giant foxtail; [6],10
same,Giant foxtail plant response rating,giant foxtail; [7],0
same,Giant foxtail plant response rating,giant foxtail; [8],0
same,Nutsedge plant response rating,purple nutsedge; [1],0
same,Nutsedge plant response rating,purple nutsedge; [2],0
same,Nutsedge plant response rating,purple nutsedge; [3],0
same,"Plant response rating, Nutsedge",purple nutsedge; [4],0
same,"Plant response rating, Nutsedge",purple nutsedge; [5],0
same,Nutsedge plant response rating,purple nutsedge; [6],0
same,Nutsedge plant response rating,purple nutsedge; [7],0
same,Nutsedge plant response rating,purple nutsedge; [8],0
same,Velvetleaf plant response rating,velvetleaf; [1],0
same,Velvetleaf plant response rating,velvetleaf; [2],0
same,Velvetleaf plant response rating,velvetleaf; [3],0
same,"Plant response rating, Velvetleaf",velvetleaf; [4],0
same,"Plant response rating, Velvetleaf",velvetleaf; [5],0
same,Velvetleaf plant response rating,velvetleaf; [6],0
same,Velvetleaf plant response rating,velvetleaf; [7],0
same,Velvetleaf plant response rating,velvetleaf; [8],0
same,Bedstraw plant response rating,bedstraw; [1],2
same,Bedstraw plant response rating,bedstraw; [2],6
same,Bedstraw plant response rating,bedstraw; [3],0
same,"Plant response rating, Bedstraw",bedstraw; [4],0
same,"Plant response rating, Bedstraw",bedstraw; [5],2
same,Bedstraw plant response rating,bedstraw; [6],2
same,Bedstraw plant response rating,bedstraw; [7],3
same,Ducksalad plant response rating,duck salad; [1],0
same,Ducksalad plant response rating,duck salad; [9],0
same,Ducksalad plant response rating,duck salad; [10],0
same,Ducksalad plant response rating,duck salad; [11],0
same,B. signalgrass plant response rating,surinam grass; [1],0
same,B. signalgrass plant response rating,surinam grass; [2],0
same,B. signalgrass plant response rating,surinam grass; [3],0
same,"Plant response rating, B. signalgrass",surinam grass; [4],1
same,"Plant response rating, B. signalgrass",surinam grass; [5],5
same,B. signalgrass plant response rating,surinam grass; [6],5
same,B. signalgrass plant response rating,surinam grass; [7],0
same,B. signalgrass plant response rating,"surinam grass; Rate 500 g/ha, Postemergence, scale of 0 to 10 where 0 is no effect and 10 is complete control",1
